Experimental data taken from ChEMBL document CHEMBL1146232, “Discovery of N-{(1S,2S)-2-(3-cyanophenyl)- 3-[4-(2-[18F]fluoroethoxy)phenyl]-1-methylpropyl}- 2-methyl-2-[(5-methylpyridin-2-yl)oxy]propanamide, a cannabinoid-1 receptor positron emission tomography tracer suitable for clinical use” (J Med Chem, 2007).

What was measured:
[1] = target: Cannabinoid receptor 1 (Homo sapiens, UniProt P21554); assay: Displacement of [3H]CP-55940 from human recombinant CB1R expressed in CHO cells; type: cell-based
[2] = Distribution coefficient, log D at pH 7.3; type: physicochemical; conditions: octanol/water
[3] = Ratio of drug level in brain to plasma in Sprague-Dawley rat at 1 mg/kg, iv after 15 mins; type: ADME, organism-based; set-up: dose 1 mg/kg, route intravenous; conditions: brain and plasma
[4] = Clearance in Sprague-Dawley rat at 1 mg/kg, iv; type: ADME, organism-based; set-up: dose 1 mg/kg, route intravenous; conditions: in vivo
[5] = Half life in Sprague-Dawley rat at 1 mg/kg, iv; type: ADME, organism-based; set-up: dose 1 mg/kg, route intravenous; conditions: in vivo
[6] = target: Cannabinoid receptor 2 (Homo sapiens, UniProt P34972); assay: Agonist activity at human CB2R; type: functional
Cannabinoid receptor 2, sequence (P34972 whole entry): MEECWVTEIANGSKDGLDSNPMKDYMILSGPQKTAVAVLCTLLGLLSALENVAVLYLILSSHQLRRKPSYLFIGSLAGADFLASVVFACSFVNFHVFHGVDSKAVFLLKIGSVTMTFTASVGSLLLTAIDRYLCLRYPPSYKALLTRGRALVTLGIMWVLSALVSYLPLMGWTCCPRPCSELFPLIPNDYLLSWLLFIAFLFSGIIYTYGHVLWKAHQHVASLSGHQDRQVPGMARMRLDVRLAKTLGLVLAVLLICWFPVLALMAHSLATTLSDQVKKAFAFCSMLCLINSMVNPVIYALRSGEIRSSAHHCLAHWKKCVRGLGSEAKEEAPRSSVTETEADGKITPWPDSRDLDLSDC

Cannabinoid receptor 1, sequence (P21554 whole entry): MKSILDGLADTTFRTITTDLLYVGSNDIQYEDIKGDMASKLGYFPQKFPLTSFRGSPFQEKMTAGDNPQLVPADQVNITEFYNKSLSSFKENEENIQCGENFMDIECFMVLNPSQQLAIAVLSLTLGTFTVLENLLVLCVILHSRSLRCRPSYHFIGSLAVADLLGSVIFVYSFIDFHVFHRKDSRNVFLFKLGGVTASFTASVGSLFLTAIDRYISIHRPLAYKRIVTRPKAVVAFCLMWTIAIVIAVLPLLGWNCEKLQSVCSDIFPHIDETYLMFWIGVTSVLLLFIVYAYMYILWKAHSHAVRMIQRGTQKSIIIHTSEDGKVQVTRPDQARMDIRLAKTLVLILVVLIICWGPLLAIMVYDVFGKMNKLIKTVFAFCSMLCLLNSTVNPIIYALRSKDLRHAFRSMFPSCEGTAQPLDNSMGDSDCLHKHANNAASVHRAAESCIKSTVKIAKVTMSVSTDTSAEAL

Row | SMILES | IC50 [1] [nM] | logD [2] | Kp at 0.25 h [3] | clearance [4] [mL/min/kg] | half-life [5] [h] | IC50 [6] [nM]
1 | Cc1ccc(OC(C)(C)C(=O)N[C@@H](C)[C@@H](Cc2ccc(OCCF)cc2)c2cccc(C#N)c2)nc1 | 0.7 | 4 | 0.5 | 81 | 1.4 | 44
2 | C[C@H](NC(=O)C(C)(C)Oc1cc(C(F)(F)F)ncn1)[C@@H](Cc1ccc(OCCF)cc1)c1cccc(C#N)c1 | 1.8 | 3.9 |  |  |  | 
3 | Cc1ccc(OC(C)(C)C(=O)N[C@@H](C)[C@@H](Cc2ccc(OCC[18F])cc2)c2cccc(C#N)c2)nc1 | 0.73 | 4 |  |  |  | 
4 | C[C@H](NC(=O)C(C)(C)Oc1ccc(C(F)(F)F)cn1)[C@@H](Cc1ccc(OCF)cc1)c1cc(F)cc(C#N)c1 | 2 | 4.7 |  |  |  | 
5 | C[C@H](NC(=O)C(C)(C)Oc1ccccn1)[C@@H](Cc1ccc(OCCF)cc1)c1cccc(C#N)c1 | 1.3 | 3.7 |  |  |  | 
6 | C[C@H](NC(=O)C(C)(C)Oc1ccc(C(F)(F)F)cn1)[C@@H](Cc1ccc(OCCF)cc1)c1cc(F)cc(C#N)c1 | 0.9 | 4.6 |  |  |  | 
7 | C[C@H](NC(=O)C(C)(C)Oc1ccc(C#N)cn1)[C@@H](Cc1ccc(OCCF)cc1)c1cccc(C#N)c1 | 1.8 | 3.3 |  |  |  | 
8 | C[C@H](NC(=O)C(C)(C)Oc1ccc(C(F)(F)F)cn1)[C@@H](Cc1ccc(Cl)cc1)c1cccc(C#N)c1 [TARANABANT] |  | 5.2 |  |  |  | 

Now from value to compound, other results behind:

Row | IC50 [1] [nM] | logD [2] | SMILES | Kp at 0.25 h [3] | clearance [4] [mL/min/kg] | half-life [5] [h] | IC50 [6] [nM]
9 | 0.9 | 4.4 | C[C@H](NC(=O)C(C)(C)Oc1ccc(C(F)(F)F)cn1)[C@@H](Cc1ccc(OCCF)cc1)c1cccc(C#N)c1 |  |  |  | 
10 | 0.8 | 4.2 | C[C@H](NC(=O)C(C)(C)Oc1ccc(Cl)cn1)[C@@H](Cc1ccc(OCCF)cc1)c1cccc(C#N)c1 |  |  |  | 
11 | 0.47 | 4.1 | Cc1ccnc(OC(C)(C)C(=O)N[C@@H](C)[C@@H](Cc2ccc(OCCF)cc2)c2cccc(C#N)c2)c1 |  |  |  | 
12 | 0.9 | 4.8 | COc1ccc(C[C@@H](c2cc(F)cc(C#N)c2)[C@H](C)NC(=O)C(C)(C)Oc2ccc(C(F)(F)F)cn2)cc1 |  |  |  | 
13 | 0.77 | 4.6 | C[C@H](NC(=O)C(C)(C)Oc1cc(C(F)(F)F)ccn1)[C@@H](Cc1ccc(OCCF)cc1)c1cccc(C#N)c1 |  |  |  | 
